Reference: ChEMBL document CHEMBL3046331, “Ethyl 4-[(1-substituted indol-2-yl)methoxy]benzoates and indoline derivatives: Anti-juvenile hormone and juvenile hormone activities” (2009)
The source made the active and inactive calls. The rule behind the calls is not given here.

What was measured:
Bombyx mori [1] = assay: Antijuvenile hormone activity in third-instar larvae of Bombyx mori assessed as induction of precocious metamorphosis at 40 ug/larvae topically applied to the dorsal abdomen; format: functional
Bombyx mori [2] = assay: Antijuvenile hormone activity in third-instar larvae of Bombyx mori assessed as induction of precocious metamorphosis at 1 ug/larvae topically applied to the dorsal abdomen; format: functional
Bombyx mori [3] = assay: Antijuvenile hormone activity in third-instar larvae of Bombyx mori assessed as induction of precocious metamorphosis at 10 ug/larvae topically applied to the dorsal abdomen; format: functional
Bombyx mori [4] = assay: Juvenile hormone activity in allatectomized fourth-instar larvae of Bombyx mori assessed as number of larvae transformed into larval-pupal intermediate at 40 ug/larvae topically applied to the dorsal abdomen; format: functional, organism-based
Bombyx mori [5] = assay: Juvenile hormone activity in allatectomized fourth-instar larvae of Bombyx mori assessed as number of larvae transformed into larval-pupal intermediate at 1 ug/larvae topically applied to the dorsal abdomen; format: functional, organism-based
Bombyx mori [6] = assay: Juvenile hormone activity in allatectomized fourth-instar larvae of Bombyx mori assessed as number of larvae transformed into precocious pupa at 1 ug/larvae topically applied to the dorsal abdomen; format: functional, organism-based
Bombyx mori [7] = assay: Juvenile hormone activity in allatectomized fourth-instar larvae of Bombyx mori assessed as number of larvae transformed into fifth instar larvae at 1 ug/larvae topically applied to the dorsal abdomen; format: functional, organism-based
Bombyx mori [8] = assay: Juvenile hormone activity in allatectomized fourth-instar larvae of Bombyx mori assessed as number of larvae transformed into precocious pupa at 40 ug/larvae topically applied to the dorsal abdomen; format: functional, organism-based
Bombyx mori [9] = assay: Juvenile hormone activity in allatectomized fourth-instar larvae of Bombyx mori assessed as number of larvae transformed into fifth instar larvae at 40 ug/larvae topically applied to the dorsal abdomen; format: functional, organism-based

Structure (SMILES)	Activity (Bombyx mori [1]) [%]	Activity (Bombyx mori [2]) [%]	Activity (Bombyx mori [3]) [%]	Activity (Bombyx mori [4])	Activity (Bombyx mori [5])	Activity (Bombyx mori [6])	Activity (Bombyx mori [7])	Activity (Bombyx mori [8])	Activity (Bombyx mori [9])
CCOC(=O)c1ccc(OCc2cc3ccccc3n2CC)cc1	5	5	5	–	–	–	–	–	–
CCOC(=O)c1ccc(OCc2cc3ccccc3n2Cc2ccccc2)cc1	84	73	73	inactive	–	–	–	–	–
COC(C)(C)CCC[C@H](C)C/C=C/C(C)=C/C(=O)OC(C)C	–	–	–	–	inactive	inactive	Active	–	–
CCCCN1c2ccccc2C[C@H]1COc1ccc(C(=O)OCC)cc1	82	5	65	inactive	–	–	–	Active	inactive
CCCCn1c(COc2ccc(C(=O)OCC)cc2)cc2ccccc21	94	65	93	inactive	–	–	–	inactive	Active
CCCn1c(COc2ccc(C(=O)OCC)cc2)cc2ccccc21	90	67	95	–	–	–	–	–	–
CCOC(=O)c1ccc(OC[C@@H]2Cc3ccccc3N2Cc2ccccc2)cc1	28	5	25	–	–	–	–	–	–
CCCCC(COc1ccc(C(=O)OCC)cc1)Cc1ccccc1 (stereo unspecified)	12	90	34	–	–	–	–	–	–
